Key:
[1] = Surface tension as specified in DIN 53993; assay type: physicochemical; settings: NaOH in deionized water, cleaner 1% by volume in Hamburg city water
Procedure: The cleaning solution diluted in ready-to-use form preferably has a surface tension of less than 50 mN/m, preferably less than 40 mN/m, further preferably less than 35 mN/m, further preferably less than 30 mN/m. The surface tension is determined by the plate-ring method as specified in DIN 53993.
The surface tension was determined as specified in DIN 53993 for the following liquids: […]

[2] = Cleaning of roughened microscope slides dirtied with blood-egg yolk mixture, immersion bath; settings: 50 mg blood-egg yolk mixture dried at 55° C. for 2 h; stirred immersion bath 10 min at room temperature; cleaner 1% strength by volume
Procedure: Roughened microscope slides are dirtied with 50 mg of a blood-egg yolk mixture, dried at 55° C. for 2 h and then immersed in a stirred bath for 10 min at room temperature. The medium used for the immersion bath is deionized water, 0.1 N NaOH or a 1% strength by volume cleaning solution of the cleaning composition concentrate according to example 1. The residual amount of fouling then determined is 20% by weight for water, 35% by weight for 0.1 N NaOH and less than 5% by weight for the cleaner, as immersion bath medium used.

surface tension [1]: 72 mN/m
Structure (SMILES): [Na+].[OH-] [0.1 N NaOH, NaOH]
residual amount of fouling [2]: 35 % by weight
